Drawing on patent US20220089575A1, “FARNESOID X RECEPTOR AGONISTS AND USES THEREOF” (Metacrine, Inc., priority 2017, published 2022), this text covers EC50 for eight molecules.

Where only a bound is given, the exact number is not on record here.

This test addresses T1, hFXR (Homo sapiens, UniProt Q96RI1).
T1 construct: expressed in transfected cells; host or cells: CV-1 cells
T1 sequence (Q96RI1 1-486): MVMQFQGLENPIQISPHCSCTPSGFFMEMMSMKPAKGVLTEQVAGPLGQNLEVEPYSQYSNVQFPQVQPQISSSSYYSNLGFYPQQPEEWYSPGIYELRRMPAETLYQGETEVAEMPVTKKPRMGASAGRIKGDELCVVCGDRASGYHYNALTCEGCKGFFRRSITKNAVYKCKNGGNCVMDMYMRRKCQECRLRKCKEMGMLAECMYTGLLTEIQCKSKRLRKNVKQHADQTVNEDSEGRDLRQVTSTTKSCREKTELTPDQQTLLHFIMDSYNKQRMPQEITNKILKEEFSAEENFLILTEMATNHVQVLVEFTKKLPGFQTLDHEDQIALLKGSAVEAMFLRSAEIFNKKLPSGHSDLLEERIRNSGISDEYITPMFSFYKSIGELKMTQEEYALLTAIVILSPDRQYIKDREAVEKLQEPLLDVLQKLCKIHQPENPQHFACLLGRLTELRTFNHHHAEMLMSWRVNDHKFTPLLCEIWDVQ
T1 sequence (P19793 1-462 partner): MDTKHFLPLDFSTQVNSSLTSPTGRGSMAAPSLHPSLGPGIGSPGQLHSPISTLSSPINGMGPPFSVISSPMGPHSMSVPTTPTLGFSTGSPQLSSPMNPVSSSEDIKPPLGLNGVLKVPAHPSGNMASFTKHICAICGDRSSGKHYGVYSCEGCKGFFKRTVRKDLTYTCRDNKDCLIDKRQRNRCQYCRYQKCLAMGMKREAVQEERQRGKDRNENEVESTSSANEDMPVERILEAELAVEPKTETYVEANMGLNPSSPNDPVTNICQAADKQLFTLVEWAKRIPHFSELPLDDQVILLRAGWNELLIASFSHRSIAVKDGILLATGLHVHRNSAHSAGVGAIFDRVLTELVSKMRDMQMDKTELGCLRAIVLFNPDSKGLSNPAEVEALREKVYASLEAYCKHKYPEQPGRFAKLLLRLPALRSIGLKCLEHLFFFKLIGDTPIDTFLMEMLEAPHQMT
Description: In Vitro FXR Assay (TK): TK-ECRE-luc reporter in transfected CV-1 cells. In kind it is cell-based. To be noted: 18 hrs, luminescence, maximum efficacy of <25% of the Fexarmine control classified as '+'. An outline of the steps: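 Luciferase read-out after 18 h compound exposure of CV-1 cells carrying transfected hFXR plus hRXR expression plasmids, TK-ECRE-luc reporter and pCMX-YFP. Cells cultured in charcoal-stripped FBS before transfection; compounds serially diluted in DMSO.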
As for `COc1ccc([C@H]2CC[C@H](CN(c3cccc(-c4cnc(C5CC5)s4)c3)C(=O)[C@H]3CC[C@H](NC(=O)COCCO)CC3)CC2)cc1C` [Compound 32.02, trans-N-(3-(2-Cyclopropylthiazol-5-yl)phenyl)-4-(2-(2-hydroxyethoxy)acetamido)-N-((trans-4-(4-methoxy-3-methylphenyl)cyclohexyl)methyl) cyclohexanecarboxamide], the concentration giving a half-maximal response (EC50) is ≤ 250 nM. The result for `COc1ccc([C@H]2CC[C@H](CN(c3cccc(-c4cnc(C5CC5)s4)c3)C(=O)[C@H]3CC[C@H](NC(=O)COCCCO)CC3)CC2)cc1C` [Compound 32.03, trans-N-(3-(2-Cyclopropylthiazol-5-yl)phenyl)-4-(2-(3-hydroxypropoxy)acetamido)-N-((trans-4-(4-methoxy-3-methylphenyl)cyclohexyl)methyl)cyclohexanecarboxamide] reads ≤ 250 nM; that for `COc1ccc([C@H]2CC[C@H](CN(c3cccc(-c4cnc(C5CC5)s4)c3)C(=O)[C@H]3CC[C@H](NC(=O)COCCN(C)C)CC3)CC2)cc1C` [Compound 32.04, trans-N-(3-(2-Cyclopropylthiazol-5-yl)phenyl)-4-(2-(2-(dimethylamino)ethoxy)acetamido)-N-((trans-4-(4-methoxy-3-methylphenyl)cyclohexyl)methyl) cyclohexanecarboxamide], ≤ 250 nM. The result for `COc1ccc([C@H]2CC[C@H](CN(c3cccc(-c4cnc(C5CC5)s4)c3)C(=O)[C@H]3CC[C@H](NC(=O)COCCN)CC3)CC2)cc1C` [Compound 32.05, trans-4-(2-(2-Aminoethoxy)acetamido)-N-(3-(2-cyclopropylthiazol-5-yl)phenyl)-N-((trans-4-(4-methoxy-3-methylphenyl)cyclohexyl)methyl) cyclohexanecarboxamide] reads 250 to 1000 nM; that for `CNCCOCC(=O)N[C@H]1CC[C@H](C(=O)N(C[C@H]2CC[C@H](c3ccc(OC)c(C)c3)CC2)c2cccc(-c3cnc(C4CC4)s3)c2)CC1` [Compound 32.06, trans-N-(3-(2-Cyclopropylthiazol-5-yl)phenyl)-N-((trans-4-(4-methoxy-3-methylphenyl)cyclohexyl)methyl)-4-(2-(2-(methylamino)ethoxy)acetamido) cyclohexanecarboxamide], ≥ 1000 nM. For the molecule `COc1ccc([C@H]2CC[C@H](CN(c3cccc(-c4cnc(C5CC5)s4)c3)C(=O)[C@H]3CC[C@H](c4nnn[nH]4)CC3)CC2)cc1C` [Compound 33, trans-N-(3-(2-Cyclopropylthiazol-5-yl)phenyl)-N-((trans-4-(4-methoxy-3-methylphenyl)cyclohexyl)methyl)-4-(2H-tetrazol-5-yl)cyclohexanecarboxamide], the concentration for a half-maximal effect (EC50) is ≤ 250 nM.

Regarding `COc1ccc([C@H]2CC[C@H](CN(c3cccc(-c4cnn(C5CC5)c4)c3)C(=O)[C@H]3CC[C@H](c4nnn[nH]4)CC3)CC2)cc1C` [Compound 33.01, trans-N-(3-(1-Cyclopropyl-1H-pyrazol-4-yl)phenyl)-N-((trans-4-(4-methoxy-3-methylphenyl)cyclohexyl)methyl)-4-(2H-tetrazol-5-yl) cyclohexanecarboxamide], the concentration for a half-maximal effect (EC50) is ≤ 250 nM. Next, `COc1ccc([C@H]2CC[C@H](CN(c3cccc(-c4cnn(C5CC5)c4)c3)C(=O)[C@H]3CC[C@H](c4noc(=O)[nH]4)CC3)CC2)cc1C` [Compound 34, trans-N-(3-(1-Cyclopropyl-1H-pyrazol-4-yl)phenyl)-N-((trans-4-(4-methoxy-3-methylphenyl)cyclohexyl)methyl)-4-(5-oxo-4,5-dihydro-1,2,4-oxadiazol-3-yl)cyclohexanecarboxamide]: ≤ 250 nM.

Broadly, the EC50 is the concentration at which the effect is half-maximal. Lower therefore signals a more potent agent.
